Data: publication PMC7717699, “Tuning the activity of iminosugars: novel N-alkylated deoxynojirimycin derivatives as strong BuChE inhibitors” (Journal of Enzyme Inhibition and Medicinal Chemistry, 2020)
Like-named read-outs stand apart in the source and are kept apart here.

Columns and labels:
[1] = target: T1, β-galactosidase (Aspergillus Oryzae) (Aspergillus oryzae, UniProt Q2UCU3); assay: β-Galactosidase (A. oryzae) inhibition; type: biochemical
T1 construct: purchased
T1 sequence (Q2UCU3 19-1005): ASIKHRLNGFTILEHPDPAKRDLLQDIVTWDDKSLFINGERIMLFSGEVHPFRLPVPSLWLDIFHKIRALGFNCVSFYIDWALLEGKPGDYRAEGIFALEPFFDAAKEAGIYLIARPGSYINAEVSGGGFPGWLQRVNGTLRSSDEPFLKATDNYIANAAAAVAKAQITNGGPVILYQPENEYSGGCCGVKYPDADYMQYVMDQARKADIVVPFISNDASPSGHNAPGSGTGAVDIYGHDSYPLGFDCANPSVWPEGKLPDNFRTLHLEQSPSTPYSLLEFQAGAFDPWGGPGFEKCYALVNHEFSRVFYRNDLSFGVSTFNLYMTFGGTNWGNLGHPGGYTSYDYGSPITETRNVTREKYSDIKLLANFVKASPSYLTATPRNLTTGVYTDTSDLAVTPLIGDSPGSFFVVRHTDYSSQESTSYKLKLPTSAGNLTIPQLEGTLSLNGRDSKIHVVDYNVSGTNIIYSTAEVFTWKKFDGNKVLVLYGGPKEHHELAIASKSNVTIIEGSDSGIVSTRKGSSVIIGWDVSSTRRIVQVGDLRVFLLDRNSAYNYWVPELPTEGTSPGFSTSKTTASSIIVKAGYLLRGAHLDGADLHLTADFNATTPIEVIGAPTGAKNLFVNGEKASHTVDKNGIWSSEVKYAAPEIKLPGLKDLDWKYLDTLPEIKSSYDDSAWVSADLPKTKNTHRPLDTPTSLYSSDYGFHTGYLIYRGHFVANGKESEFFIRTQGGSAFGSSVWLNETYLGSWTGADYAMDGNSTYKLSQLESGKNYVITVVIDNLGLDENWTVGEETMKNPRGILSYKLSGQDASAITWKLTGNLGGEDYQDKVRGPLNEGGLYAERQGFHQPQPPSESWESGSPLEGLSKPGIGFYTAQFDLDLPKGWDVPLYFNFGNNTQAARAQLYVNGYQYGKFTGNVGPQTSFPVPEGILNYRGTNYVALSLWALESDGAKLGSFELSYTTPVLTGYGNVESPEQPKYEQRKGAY
Method: (§1) For both families of enzymes used herein (glycosidases and cholinesterases), stock solutions of the inhibitors were prepared in DMSO; DMSO content was kept at 5% (V/V) for glycosidases and 1.25% (V/V) for cholinesterases. Enzymes were properly dissolved in water in a concentration in which the rate of the reaction when using [S] = 4 × KM is in the range 0.12–0.15 Abs/min. In both kinds of enzymes, an initial screening at 100 µM inhibitor concentration was performed, using the following substrate concentrations: [S] = 0.25 mM for α-glucosidase (Saccharomyces cerevisiae), 4.0 mM for β-glucosidase (almonds), 0.60 mM for α-galactosidase (green coffee beans), 0.51 mM for β-galactosidase (Escherichia coli), 1.5 mM for β-galactosidase (Aspergillus Oryzae), 0.12 mM for AChE (Electrophorus electricus), 0.11 mM for BuChE (equine serum). […] Each assay was run in duplicate.
(§2) Glycosidase assays were accomplished using the methodology reported by Bols and co-workers[30]. Each set of experiments is prepared in PS cuvettes using 0.1 M phosphate buffer (pH 6.8) and the corresponding o- or p-nitrophenyl glycopyranosides as substrates. Reactions were monitored at 25 °C by following the formation of the corresponding nitrophenolates at 400 nm (glucosidases and α-galactosidase) or 420 nm (β-galactosidases) over a time of 125 s.
(§3) Assessment of the inhibitory capacity against glycosidases was accomplished using the methodology reported by Bols and co-workers[30]. p-Nitrophenyl glycosides (o- for β-galactosidases) were used as model substrates, and the release of the corresponding p-nitrophenolates at pH 6.8 was monitored spectrophotometrically (λmax = 400 or 420 nm for p- or o-nitrophenolates, respectively).

BuChE (equine serum) = target: T2, BuChE (equine serum) (Equus caballus, UniProt P81908); assay: BuChE inhibition, Ellman's assay; type: biochemical; conditions: for Mode of inhibition BuChE: Cornish–Bowden method
T2 construct: 0.11 mM for BuChE (equine serum); from tissue; host or cells: equine serum
Method: as §1
(§4) For cholinesterases, minor modifications on Ellman’s assay[31] were performed. The activity was measured in PS cuvettes containing […] (pH 8.0), 0.88 mM DTNB, and substrate (acetyl- and butyryl-thiocholine iodides for AChE and BuChE, respectively), The formation of the chromophore was monitored at 405 nm over a time of 125 s.
(§5) For strong inhibitors, the mode of inhibition was determined using the Cornish–Bowden method, which involves the use of two different plots: 1/v vs. [I] (Dixon plot) and [S]/v vs. [I]. For the calculation of kinetic parameters (KM, Vmax) a nonlinear regression analysis (least squares fit, GraphPad Prism 8.01) was used. Data are expressed as the mean ± SD.
(§6) Derivatives 11 and 12 were tested also against AChE (Electrophorus electricus) and BuChE (equine serum), as recognised models for human cholinesterases due to their close structural resemblance. For that purpose, Ellman’s colorimetric assay was used; this is an indirect test in which acetyl and butyryl thiocholine iodides are used as model substrates, which upon interaction with the enzyme release thiocholine, which in turn reacts with the chromogen reagent 5,5′-dithiobis(2-nitrobenzoic acid (DTNB) to give 2-nitro-5-mercaptobenzoate (at pH 8.0). The monitoring of the latter at 405 nm furnishes the kinetic parameters.

[2] = target: AChE (Electrophorus electricus) (Electrophorus electricus, UniProt O42275); assay: AChE inhibition, Ellman's assay; type: biochemical; conditions: for Mode of inhibition AChE: Cornish–Bowden method
Method: as §1, §4, §5, §6

β-glucosidase (almonds) = assay: β-Glucosidase inhibition (p-nitrophenyl glycoside substrate); type: biochemical; conditions: for IC50: almond enzyme, pH 6.8, 25 °C; for Mode of inhibition β-Glucosidase: Cornish–Bowden method; for Ki: binding to free enzyme, read-out: Kia β-Glucosidase
Method: as §1, §2, §5, §3

[3] = target: T3, β-galactosidase (Escherichia coli) (Escherichia coli, UniProt P00722); assay: β-Galactosidase (E. coli) inhibition; type: biochemical
T3 construct: purchased
Method: as §1, §2, §3

[4] = target: T4, α-glucosidase (Saccharomyces cerevisiae) (Saccharomyces cerevisiae, UniProt P53341); assay: α-Glucosidase inhibition (p-nitrophenyl glycoside substrate); type: biochemical
T4 construct: purchased
Method: as §1, §2
(Dixon plot) and [S]/v vs. [I]. For the calculation of kinetic parameters (KM, Vmax) a nonlinear regression analysis (least squares fit, GraphPad Prism 8.01) was used. Data are expressed as the mean ± SD.
as §3

[5] = target: T5, α-galactosidase (green coffee beans) (Coffea arabica, UniProt Q42656); assay: α-Galactosidase inhibition; type: biochemical
T5 construct: purchased; host or cells: green coffee beans
Method: as §1, with “Enzymes” for “For both families of enzymes used herein (glycosidases and cholinesterases), stock solutions of the inhibitors were prepared in DMSO; DMSO content was kept at 5% (V/V) for glycosidases and 1.25% (V/V) for cholinesterases. Enzymes”
Glycosidase assays were accomplished using the methodology reported by Bols and co-workers[30]. Each set of experiments is prepared in PS cuvettes using 0.1 M phosphate buffer (pH 6.8) and the corresponding o- or p-nitrophenyl glycopyranosides as substrates.
as §3

[6] = system: BJ-hTERT human fibroblasts; assay: Antiproliferative SRB assay, BJ-hTERT; type: cell-based; conditions: Fibroblast, 48 h, non-tumour fibroblasts
[7] = cited from earlier work
[8] = equine serum, pH 8.0, read-out: IC50 BuChE
[9] = Electrophorus electricus, pH 8.0, read-out: IC50 AChE
[10] = binding to enzyme-substrate complex, read-out: Kib BuChE
[11] = binding to free enzyme, read-out: Kia BuChE
[12] = binding to enzyme-substrate complex, read-out: Kib AChE
[13] = binding to free enzyme, read-out: Kia AChE

T4 sequence (P53341 whole entry): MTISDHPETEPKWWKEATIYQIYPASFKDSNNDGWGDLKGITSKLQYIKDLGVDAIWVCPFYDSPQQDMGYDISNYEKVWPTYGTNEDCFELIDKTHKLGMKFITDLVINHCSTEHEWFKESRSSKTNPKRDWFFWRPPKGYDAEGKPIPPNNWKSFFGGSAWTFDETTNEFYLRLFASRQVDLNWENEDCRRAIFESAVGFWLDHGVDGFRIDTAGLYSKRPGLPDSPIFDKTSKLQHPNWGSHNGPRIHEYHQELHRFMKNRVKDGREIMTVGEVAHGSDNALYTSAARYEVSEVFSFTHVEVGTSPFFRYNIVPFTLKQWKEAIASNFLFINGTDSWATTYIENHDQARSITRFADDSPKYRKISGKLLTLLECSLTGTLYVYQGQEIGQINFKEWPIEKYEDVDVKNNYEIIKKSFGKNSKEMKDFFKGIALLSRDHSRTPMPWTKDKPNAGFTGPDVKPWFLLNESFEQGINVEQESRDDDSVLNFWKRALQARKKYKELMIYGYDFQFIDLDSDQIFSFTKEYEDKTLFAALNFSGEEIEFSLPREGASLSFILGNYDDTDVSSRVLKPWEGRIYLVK
T2 sequence (P81908 whole entry): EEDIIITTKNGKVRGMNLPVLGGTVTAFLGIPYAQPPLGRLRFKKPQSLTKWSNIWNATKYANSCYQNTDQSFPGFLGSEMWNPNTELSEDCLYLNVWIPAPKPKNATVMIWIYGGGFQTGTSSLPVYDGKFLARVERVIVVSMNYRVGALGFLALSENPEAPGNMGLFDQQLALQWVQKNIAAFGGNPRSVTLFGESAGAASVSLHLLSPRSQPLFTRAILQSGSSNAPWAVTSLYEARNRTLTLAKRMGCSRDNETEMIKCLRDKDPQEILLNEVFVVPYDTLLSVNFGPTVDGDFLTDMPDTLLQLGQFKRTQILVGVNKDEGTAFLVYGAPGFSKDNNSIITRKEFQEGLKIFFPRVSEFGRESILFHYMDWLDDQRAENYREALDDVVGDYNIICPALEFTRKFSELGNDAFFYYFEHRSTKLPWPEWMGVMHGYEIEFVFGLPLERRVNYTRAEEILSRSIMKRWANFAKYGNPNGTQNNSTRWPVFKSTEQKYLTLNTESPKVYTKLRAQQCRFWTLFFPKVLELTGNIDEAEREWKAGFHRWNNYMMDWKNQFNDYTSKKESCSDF
Chain of AChE (Electrophorus electricus) (O42275 24-633): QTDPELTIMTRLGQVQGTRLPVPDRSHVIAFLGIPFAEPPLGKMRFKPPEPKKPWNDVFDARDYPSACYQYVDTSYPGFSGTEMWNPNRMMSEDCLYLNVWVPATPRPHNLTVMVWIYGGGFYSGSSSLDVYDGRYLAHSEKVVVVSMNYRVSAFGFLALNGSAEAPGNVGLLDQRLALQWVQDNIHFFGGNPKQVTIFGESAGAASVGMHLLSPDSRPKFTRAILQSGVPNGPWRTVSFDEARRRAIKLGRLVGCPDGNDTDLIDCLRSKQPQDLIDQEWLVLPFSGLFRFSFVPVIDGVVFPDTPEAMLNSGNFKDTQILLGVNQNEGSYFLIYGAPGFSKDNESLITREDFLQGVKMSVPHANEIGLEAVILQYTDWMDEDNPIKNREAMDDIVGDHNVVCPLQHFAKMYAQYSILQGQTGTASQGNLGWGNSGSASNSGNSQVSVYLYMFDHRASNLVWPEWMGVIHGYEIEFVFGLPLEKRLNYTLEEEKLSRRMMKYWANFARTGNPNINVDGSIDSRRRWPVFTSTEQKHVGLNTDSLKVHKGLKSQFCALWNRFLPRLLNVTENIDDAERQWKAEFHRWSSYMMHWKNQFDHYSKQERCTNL
T5 sequence (Q42656 16-378): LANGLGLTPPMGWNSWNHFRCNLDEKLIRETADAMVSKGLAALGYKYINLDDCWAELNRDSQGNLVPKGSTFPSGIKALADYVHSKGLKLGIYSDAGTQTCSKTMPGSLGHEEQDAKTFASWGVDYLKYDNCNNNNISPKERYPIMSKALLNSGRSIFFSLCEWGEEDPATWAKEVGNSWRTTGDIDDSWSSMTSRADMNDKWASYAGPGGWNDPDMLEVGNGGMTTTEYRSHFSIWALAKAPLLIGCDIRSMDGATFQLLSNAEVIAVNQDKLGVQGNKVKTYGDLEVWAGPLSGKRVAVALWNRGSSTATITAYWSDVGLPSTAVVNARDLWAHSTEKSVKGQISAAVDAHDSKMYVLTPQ
T3 sequence (P00722 2-1024 limits assumed): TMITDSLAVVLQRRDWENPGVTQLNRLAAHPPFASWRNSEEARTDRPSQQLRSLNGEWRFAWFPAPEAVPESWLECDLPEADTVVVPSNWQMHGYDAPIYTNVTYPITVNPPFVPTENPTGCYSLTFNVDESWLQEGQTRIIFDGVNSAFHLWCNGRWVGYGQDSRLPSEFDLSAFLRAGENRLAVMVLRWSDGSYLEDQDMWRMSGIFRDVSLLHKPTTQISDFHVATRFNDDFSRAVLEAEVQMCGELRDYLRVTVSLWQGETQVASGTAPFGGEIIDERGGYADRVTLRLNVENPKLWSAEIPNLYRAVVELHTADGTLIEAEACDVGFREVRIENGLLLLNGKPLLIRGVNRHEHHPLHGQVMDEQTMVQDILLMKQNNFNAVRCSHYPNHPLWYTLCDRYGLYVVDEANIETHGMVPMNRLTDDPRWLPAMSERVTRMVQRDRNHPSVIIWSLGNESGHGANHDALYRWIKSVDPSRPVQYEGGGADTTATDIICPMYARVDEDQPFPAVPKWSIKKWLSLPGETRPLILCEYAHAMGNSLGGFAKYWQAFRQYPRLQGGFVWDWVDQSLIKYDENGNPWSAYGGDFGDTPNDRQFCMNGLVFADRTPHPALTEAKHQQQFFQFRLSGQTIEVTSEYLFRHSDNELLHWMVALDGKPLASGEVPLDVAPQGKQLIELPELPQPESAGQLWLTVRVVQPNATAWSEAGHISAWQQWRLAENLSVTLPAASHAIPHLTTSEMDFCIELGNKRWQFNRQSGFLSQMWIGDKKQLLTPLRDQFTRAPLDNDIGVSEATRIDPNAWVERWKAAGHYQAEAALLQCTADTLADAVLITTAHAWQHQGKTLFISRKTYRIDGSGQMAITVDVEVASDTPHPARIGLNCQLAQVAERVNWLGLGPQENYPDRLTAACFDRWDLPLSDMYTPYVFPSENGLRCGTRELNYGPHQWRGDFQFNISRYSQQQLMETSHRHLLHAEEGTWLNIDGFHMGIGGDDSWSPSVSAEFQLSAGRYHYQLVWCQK

SMILES | Mode of inhibition BuChE (BuChE (equine serum)) | IC50 (β-glucosidase (almonds)) [µM] | IC50 [1] [µM] | IC50 (BuChE (equine serum); [8]) [µM] | IC50 [2, 9] [µM] | Mode of inhibition β-Glucosidase (β-glucosidase (almonds)) | Ki (β-glucosidase (almonds)) [µM] | IC50 [4] [µM] | IC50 [5] [µM] | IC50 [3] [µM] | other results
OC[C@H]1NC[C@H](O)[C@@H](O)[C@@H]1O [Compound 1-DNJ, 1-deoxynojirimycin, reference compound] | Non-competitive | […] | – | – | – | – | – | – | – | – | IC50 ([1]; Asp. Oryzae enzyme, read-out: IC50 β-Galactosidase (Asp. Oryzae)): > 100 µM; IC50 (BuChE (equine serum)): 10 µM; Ki (BuChE (equine serum)): 16 ± 3 µM; IC50 [2]: > 100 µM; IC50 ([3]; E. coli enzyme, read-out: IC50 β-Galactosidase (E. coli)): > 100 µM
OC[C@@H]1[C@@H](O)[C@H](O)[C@@H](O)CN1CCCCCCOCCc1ccccc1 [Compound 11a] | – | 4.6 | > 100 | > 100 | > 100 | Competitive | 6.5 | 126 | > 100 | > 100 | Ki [4]: 93 µM; Mode of inhibition α-Glucosidase ([4]; Cornish–Bowden method): Competitive
OC[C@@H]1[C@@H](O)[C@H](O)[C@@H](O)CN1CCCCCCOCCc1ccc(O)cc1 [Compound 11b] | – | 12 | > 100 | > 100 | > 100 | Competitive | 17 | > 100 | > 100 | > 100 | –
COc1ccc(CCOCCCCCCN2C[C@H](O)[C@@H](O)[C@H](O)[C@H]2CO)cc1 [Compound 11c] | – | 6 | > 100 | > 100 | > 100 | Competitive | 4.5 | > 100 | > 100 | > 100 | –
OC[C@@H]1[C@@H](O)[C@H](O)[C@@H](O)CN1CCCCCCOCCc1ccc(O)c(O)c1 [Compound 11d] | – | 15 | > 100 | 76 | > 100 | Competitive | 11 | > 100 | > 100 | > 100 | GI50 [6]: 39 ± 5 µM
COc1ccc(CCOCCCCCCN2C[C@H](O)[C@@H](O)[C@H](O)[C@H]2CO)cc1OC [Compound 11e] | mixed inhibition | 14 | > 100 | 1.9 | 5.8 | Competitive | 15 | > 100 | > 100 | > 100 | Ki (BuChE (equine serum); [10]): 4.5 µM; Ki (BuChE (equine serum); [11]): 1.4 µM; Mode of inhibition AChE [2]: mixed inhibitor; Ki [2, 12]: 5.2 µM; Ki [2, 13]: 9.3 µM
COc1cc(CCOCCCCCCN2C[C@H](O)[C@@H](O)[C@H](O)[C@H]2CO)ccc1O [Compound 11f] | Mixed | 8.2 | > 100 | 1.8 | 7.3 | Competitive | 9.6 | > 100 | > 100 | > 100 | Ki (BuChE (equine serum); [10]): 5 µM; Ki (BuChE (equine serum); [11]): 1.5 µM; Mode of inhibition AChE [2]: Non-competitive; Ki [2, 12]: 17 ± 5 µM; Ki [2, 13]: 17 ± 5 µM
OC[C@@H]1[C@@H](O)[C@H](O)[C@@H](O)CN1CCCCCCOCCc1ccc2c(c1)OCO2 [Compound 11g] | Non-competitive | 8.4 | > 100 | 7.3 | 48 | Competitive | 9 | > 100 | > 100 | > 100 | Ki (BuChE (equine serum); [10]): 9.2 ± 1.9 µM; Ki (BuChE (equine serum); [11]): 9.2 ± 1.9 µM; Mode of inhibition AChE [2]: Mixed; Ki [2, 12]: 43 µM; Ki [2, 13]: 56 µM
OC[C@@H]1[C@@H](O)[C@H](O)[C@@H](O)CN1CCCCCOCCc1ccccc1 [Compound 12a] | – | 28 | > 100 | > 100 | > 100 | Competitive | 23 ± 4 | > 100 | > 100 | > 100 | –
COc1ccc(CCOCCCCCN2C[C@H](O)[C@@H](O)[C@H](O)[C@H]2CO)cc1 [Compound 12c] | – | 25 | > 100 | > 100 | > 100 | Competitive | 14 ± 6 | > 100 | > 100 | > 100 | –
OC[C@@H]1[C@@H](O)[C@H](O)[C@@H](O)CN1CCCCCOCCc1ccc(O)c(O)c1 [Compound 12d] | – | > 50 | – | > 100 | > 100 | – | – | > 100 | – | – | –
CCCCN1C[C@H](O)[C@@H](O)[C@H](O)[C@H]1CO [N-butyl-DNJ, N-butyl-1-deoxynojirimycin] | – | – | – | – | – | – | – | – | – | – | pKa [7]: 7.1
CCCCCCCCCN1C[C@H](O)[C@@H](O)[C@H](O)[C@H]1CO [N-nonyl-DNJ] | – | – | – | – | – | – | – | – | – | – | pKa [7]: 6.7
